Test results from patent US20090233943A9, “NEW COMPOUNDS 835” (priority 2007, published 2009).

Target: T1, human β-Secretase (soluble part, AA 1-AA 460, sBACE-Fc) (Homo sapiens, UniProt P56817)
T1 construct: The soluble part of the human β-Secretase (AA 1-AA 460) was cloned; made in house
Experiment: TR-FRET assay (β-secretase enzyme)
Format: biochemical
Protocol: The enzyme used in the IGEN Cleavage-, Fluorescent-, TR-FRET- and BiaCore assays is described as follows:
The soluble part of the human β-Secretase (AA 1-AA 460) was cloned into the ASP2-Fc10-1-IRES-GFP-neoK mammalian expression vector. The gene was fused to the Fc domain of IgG1 (affinity tag) and stably cloned into SEEK 293 cells. Purified sBACE-Fc is stored in Tris buffer, pH 9.2 and has a purity of 95%.
Enzyme was diluted to 6 μg/mL and the substrate (Europium)[…](Qsy7) to 200 nM in reaction buffer (NaAcetate, chaps, triton x-100, EDTA pH 4.5). Compounds were diluted to the desired concentration in dimethyl sulfoxide (final dimethyl sulfoxide concentration in assay is 5%). […] Enzyme (9 μL) and 1 μL of compound in dimethyl sulfoxide was added to the plate, mixed and pre-incubated for 10 min. Substrate (10 μL) was added and the reaction proceeded in the dark for 15 min at RT. The reaction was stopped with the addition of 7 μL NaAcetate, pH 9. The fluorescence of the product was measured on a Victor II plate reader with an excitation wavelength of 340 nm and an emission wavelength of 615 nm. […] The dimethyl sulfoxide control defined the 100% activity level and 0% activity was defined by exclusion of the enzyme (using reaction buffer instead).

T1 sequence (P56817 22-460): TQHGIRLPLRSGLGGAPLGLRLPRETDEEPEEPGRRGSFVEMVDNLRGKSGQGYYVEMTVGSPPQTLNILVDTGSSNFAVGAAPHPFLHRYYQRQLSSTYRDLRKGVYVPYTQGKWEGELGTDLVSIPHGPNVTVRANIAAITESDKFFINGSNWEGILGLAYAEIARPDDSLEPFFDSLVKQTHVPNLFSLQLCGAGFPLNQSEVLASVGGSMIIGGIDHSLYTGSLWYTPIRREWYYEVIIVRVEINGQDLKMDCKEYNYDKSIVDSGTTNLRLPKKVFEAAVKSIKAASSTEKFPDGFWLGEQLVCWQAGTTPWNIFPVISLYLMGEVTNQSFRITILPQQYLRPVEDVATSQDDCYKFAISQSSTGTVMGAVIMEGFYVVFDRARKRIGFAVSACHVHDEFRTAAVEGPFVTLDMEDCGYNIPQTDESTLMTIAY

Structure (SMILES)	IC50 [nM]
CN1C(=O)C(c2ccc(S(F)(F)(F)(F)F)cc2)(c2cccc(-c3cscn3)c2)N=C1N (stereo not shown) [Example 43, 2-amino-3-methyl-5-[4-(pentafluoro-λ^6-sulfanyl)phenyl]-5-[3-(1,3-thiazol-4-yl)phenyl]-3,5-dihydro-4H-imidazol-4-one]	673
CN1C(=O)C(c2ccc(S(F)(F)(F)(F)F)cc2)(c2cccc(-c3cn(C)cn3)c2)N=C1N (stereo not shown) [Example 44, 2-amino-3-methyl-5-[3-(1-methyl-1H-imidazol-4-yl)phenyl]-5-[4-(pentafluoro-λ^6-sulfanyl)phenyl]-3,5-dihydro-4H-imidazol-4-one]	643
CN1C(=O)C(c2ccc(S(F)(F)(F)(F)F)cc2)(c2cccc(-c3cncc(C#N)c3)c2)N=C1N (stereo not shown) [Example 45, 5-(3-{2-amino-1-methyl-5-oxo-4-[4-(pentafluoro-λ^6-sulfanyl)phenyl]-4,5-dihydro-1H-imidazol-4-yl}phenyl)pyridine-3-carbonitrile]	59
CN1C(=O)C(c2ccc(S(F)(F)(F)(F)F)cc2)(c2cccc(-c3cccc(Cl)c3F)c2)N=C1N (stereo not shown) [Example 46, 2-amino-5-(3′-chloro-2′-fluorobiphenyl-3-yl)-3-methyl-5-[4-(pentafluoro-λ^6-sulfanyl)phenyl]-3,5-dihydro-4H-imidazol-4-one]	694
COc1ccc(F)c(-c2cccc(C3(c4ccc(S(F)(F)(F)(F)F)cc4)N=C(N)N(C)C3=O)c2)c1F (stereo not shown) [Example 47, 2-amino-5-(2′,6′-difluoro-3′-methoxybiphenyl-3-yl)-3-methyl-5-[4-(pentafluoro-λ^6-sulfanyl)phenyl]-3,5-dihydro-4H-imidazol-4-one]	38
CN1C(=O)C(c2cccc(S(F)(F)(F)(F)F)c2)(c2ccc(F)c(-c3cncnc3)c2)N=C1N (stereo not shown) [Example 48, 2-Amino-5-(4-fluoro-3-pyrimidin-5-ylphenyl)-3-methyl-5-[3-(pentafluoro-λ^6-sulfanyl)phenyl]-3,5-dihydro-4H-imidazol-4-one 0.25 acetate]	487
CN1C(=O)C(c2cccc(S(F)(F)(F)(F)F)c2)(c2ccc(F)c(-c3cncc(C#N)c3)c2)N=C1N (stereo not shown) [Example 49, 5-(5-{2-Amino-1-methyl-5-oxo-4-[3-(pentafluoro-λ^6-sulfanyl)phenyl]-4,5-dihydro-1H-imidazol-4-yl}-2-fluorophenyl)nicotinonitrile 0.25 acetate]	1140
CN1C(=O)C(c2cccc(S(F)(F)(F)(F)F)c2)(c2ccc(F)c(-c3cccnc3)c2)N=C1N (stereo not shown) [Example 50, 2-Amino-5-(4-fluoro-3-pyridin-3-ylphenyl)-3-methyl-5-[3-(pentafluoro-λ^6-sulfanyl)phenyl]-3,5-dihydro-4H-imidazol-4-one]	317
COc1cncc(-c2cc(C3(c4cccc(S(F)(F)(F)(F)F)c4)N=C(N)N(C)C3=O)ccc2F)c1 (stereo not shown) [Example 51, 2-Amino-5-[4-fluoro-3-(5-methoxypyridin-3-yl)phenyl]-[3-methyl-5-3-(pentafluoro-6-sulfanyl)phenyl]-3,5-dihydro-4H-imidazol-4-one]	305
CN1C(=O)C(c2cccc(S(F)(F)(F)(F)F)c2)(c2ccc(F)c(-c3cncc(F)c3)c2)N=C1N (stereo not shown) [Example 52, 2-Amino-5-[4-fluoro-3-(5-fluoropyridin-3-yl)phenyl]-3-methyl-5-[3-(pentafluoro-λ^6-sulfanyl)phenyl]-3,5-dihydro-4H-imidazol-4-one]	1190
